Source: patent US7173019B2, “Linked cyclitols and their polysulfated derivatives” (The Australian National University, priority 2001, dated 2007)
Like-named read-outs stand apart in the source and are kept apart here.

Experiments:
IL-8 = target: T1, IL-8 (Homo sapiens, UniProt P10145); experiment: Biacore biosensor: inhibition of IL-8 binding to immobilised heparin and heparan sulfate; settings: inhibitor 1.0 μM, IL-8 0.068 μM
T1 sequence (P10145 21-99): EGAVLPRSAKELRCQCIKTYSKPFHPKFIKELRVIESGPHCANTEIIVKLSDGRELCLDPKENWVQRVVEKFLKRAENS
Description: (§1) Assays were performed using a Biacore™ 2000 optical biosensor obtained from Biacore AB, Uppsala, Sweden. The biosensor was operated in accordance with the manufacturer's instructions. Briefly, neutravidin was covalently coupled to the surface of CM5 chips of the biosensor and then either biotinylated heparin (1 μg/ml) or biotinylated heparan sulfate ([…]) bound to the immobilised neutravidin. Mixtures of a test compound and a growth factor or other effector compound were preincubated for 2 to 5 minutes and the mixtures then added to individual biosensor cuvettes. Binding of growth factor or effector compound to the heparin or heparan sulfate was then monitored for approximately 5 minutes with the biosensor.

rat aorta fragments = experiment: In vitro angiogenesis inhibition assay; format: cell-based; settings: control 90
Description: The ability of linked cyclitol compounds to inhibit angiogenesis in vitro was conducted using the assay essentially as described in the present applicant's International Patent Application No. PCT/AU95/00105 (Publication No. WO 95/23968), the entire content of which is incorporated herein by cross reference. The only changes to the procedure described in PCT/AU95/00105 were that the assays were conducted using rat aorta fragments rather than human placental vessel fragments.
All potential inhibitors were tested at 100 μg/ml with PI-88 also being tested at 10 μg/ml. The tabulated data represent means of 4 culture wells for each experiment. Significant inhibition of angiogenesis is indicated with a single asterisk while double asterisks denote highly significant inhibition.
The compounds were also tested at the same purity as in Example 15 save that the second entries for 4b and 4j relate to data obtained with higher purity compounds than the compounds used for the first data entries of each.

bFGF = bFGF (Homo sapiens, UniProt P09038); experiment: Biacore biosensor: inhibition of bFGF binding to immobilised heparin and heparan sulfate; settings: for Inhibition of binding of bFGF (HS) / Inhibition of binding of bFGF (Hep) / inhibition at 0.034 µM: inhibitor 0.034 μM, bFGF 0.034 μM
Chain of bFGF (P09038 134-288 limits assumed, species assumed): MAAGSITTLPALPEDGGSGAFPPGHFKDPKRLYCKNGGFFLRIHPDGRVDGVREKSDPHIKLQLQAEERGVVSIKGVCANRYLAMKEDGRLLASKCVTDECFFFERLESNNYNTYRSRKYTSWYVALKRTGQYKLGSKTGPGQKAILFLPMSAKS
Description: as §1
(§2) The tabulated values are the IC50 in μM or % inhibition of binding of the growth factor to the immobilised heparan sulfate (HS) or heparin.

[1] = target: T2, human platelet heparanase (Homo sapiens, UniProt Q9Y251); experiment: Heparanase inhibition, 3H-radiolabelled HS cleavage assay; format: biochemical; settings: for Relative inhibition (%) / inhibition: based on a comparison with heparin with 100% inhibition at 30 μg/ml; for EC50: heparanase inhibition; for inhibition: read-out: Relative inhibition (%)
T2 construct: 10 ng of purified human platelet heparanase; from tissue; host or cells: human platelets
T2 sequence (Q9Y251 158-543 limits assumed): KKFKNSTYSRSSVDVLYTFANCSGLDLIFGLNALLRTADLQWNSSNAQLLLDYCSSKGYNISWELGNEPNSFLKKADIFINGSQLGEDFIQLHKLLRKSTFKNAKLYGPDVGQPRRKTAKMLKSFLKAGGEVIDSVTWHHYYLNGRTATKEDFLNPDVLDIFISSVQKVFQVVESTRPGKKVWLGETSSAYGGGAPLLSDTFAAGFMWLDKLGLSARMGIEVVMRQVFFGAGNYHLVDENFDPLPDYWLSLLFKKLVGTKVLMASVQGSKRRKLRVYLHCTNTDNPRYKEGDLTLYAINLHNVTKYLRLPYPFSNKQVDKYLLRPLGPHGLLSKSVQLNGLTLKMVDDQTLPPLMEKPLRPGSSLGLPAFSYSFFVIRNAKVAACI
T2 sequence (Q9Y251 36-109 limits assumed): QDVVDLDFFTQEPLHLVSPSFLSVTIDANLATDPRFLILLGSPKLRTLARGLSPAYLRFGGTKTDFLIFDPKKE
Description: Briefly, to an incubation mixture of […] containing ^3H-radiolabelled porcine mucosal HS […], 50 mM-sodium acetate buffer, pH 5.0, […] bovine serum albumin and the inhibitor to be tested, was added 10 ng of purified human platelet heparanase and the mixture incubated for 30 min. The reaction was terminated by freezing the assay tubes. The substrate was separated from the cleavage products on minicolumns of sepharose-bound histidine-rich glycoprotein (Freeman, C., and Parish, C. R. [1997], supra).
Inhibitory activity is based on a comparison with heparin with 100% inhibition at 30 μg/ml. The compounds were also tested at the same purity as in Example 15.

VEGF = target: T3, VEGF (Homo sapiens, UniProt P15692); experiment: Biacore biosensor: inhibition of VEGF binding to immobilised heparin and heparan sulfate; settings: inhibitor 0.034 μM, VEGF 0.025 μM
T3 sequence (P15692 27-191 isoform P15692-4): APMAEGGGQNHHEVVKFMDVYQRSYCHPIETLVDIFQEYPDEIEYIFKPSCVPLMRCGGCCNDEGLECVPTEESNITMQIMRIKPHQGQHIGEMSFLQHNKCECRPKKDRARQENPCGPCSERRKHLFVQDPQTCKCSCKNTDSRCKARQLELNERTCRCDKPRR
Description: as §1, §2

aFGF = aFGF (Homo sapiens, UniProt P05230); experiment: Biacore biosensor: inhibition of aFGF binding to immobilised heparin and heparan sulfate; settings: inhibitor 0.034 μM, aFGF 0.025 μM
Chain of aFGF (P05230 whole entry, species assumed): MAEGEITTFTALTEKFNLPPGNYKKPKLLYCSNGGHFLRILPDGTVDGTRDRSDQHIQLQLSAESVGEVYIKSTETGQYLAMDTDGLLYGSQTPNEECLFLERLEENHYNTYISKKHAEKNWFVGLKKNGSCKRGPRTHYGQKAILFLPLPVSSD
Description: as §1, §2

[2] = target: T4, human leukocyte Cathepsin G (Homo sapiens, UniProt P08311); experiment: Cathepsin G inhibition, fluorogenic substrate, 96 well assay; format: biochemical; settings: human leukocyte cathepsin G 100 ng, 37° C., 60 min, pH 6.6; for IC50: read-out: Amount for 50% inhibition (converted)
T4 construct: human leukocyte Cathepsin G (100 ng protein); from tissue; host or cells: human leukocytes
T4 sequence (P08311 21-244): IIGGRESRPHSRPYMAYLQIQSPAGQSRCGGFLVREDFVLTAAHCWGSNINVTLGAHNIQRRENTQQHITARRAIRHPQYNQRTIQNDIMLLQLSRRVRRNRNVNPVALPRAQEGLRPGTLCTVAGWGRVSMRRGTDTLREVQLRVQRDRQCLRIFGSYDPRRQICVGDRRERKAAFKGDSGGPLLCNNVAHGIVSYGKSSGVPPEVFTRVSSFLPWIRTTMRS
Description: Cathepsin G activity was determined using a 96 well assay format in PVC microtitre U-bottom plates with activity determination by a fluorescence plate reader. Briefly, within a total incubation volume of 40 μl, human leukocyte Cathepsin G (100 ng protein) was added to a mixture of inhibitor and the fluorogenic substrate MeOSuc-ala-ala-pro-phe-AMAC in 50 mM-NaOAc buffer, pH 6.6 containing 50 mM NaCl and 0.1% (v/v) Brij 35. The mixture was incubated at 37° C. for 60 min, the reaction stopped by the addition of 40 μl of 250 mM acetic acid and the fluorescence determined with excitation at 360 nm and emitted light measured at 460 nm.
In this table, the linked cyclitol compound identifications are the same as those given in Section A above where the structures of the compounds are also given. With regard to the purity rating, a greater number of asterisks signifies a greater degree of purity with five asterisks signifying an essentially pure compound. The cathepsin G inhibition data are the concentrations of compounds required to inhibit the enzyme by 50%.

[3] = inhibitor 100 μg/ml, means of 4 culture wells per experiment, * significant, ** highly significant inhibition
[4] = immobilised heparan sulfate, read-out: IC50, inhibition of bFGF binding (HS)
[5] = immobilised heparin, read-out: IC50, inhibition of bFGF binding (Hep)
[6] = immobilised heparan sulfate, read-out: Inhibition of binding of IL-8 (HS)
[7] = immobilised heparin, read-out: Inhibition of binding of IL-8 (Hep)
[8] = immobilised heparan sulfate, read-out: Inhibition of binding of bFGF (HS)
[9] = immobilised heparin, read-out: Inhibition of binding of bFGF (Hep)
[10] = immobilised heparan sulfate, read-out: Inhibition of binding of VEGF (HS)
[11] = immobilised heparin, read-out: Inhibition of binding of VEGF (Hep)
[12] = immobilised heparan sulfate, read-out: Inhibition of binding of aFGF (HS)
[13] = immobilised heparin, read-out: Inhibition of binding of aFGF (Hep)

Molecule	Inhibition of binding of IL-8 (HS) (IL-8; immobilised heparan sulfate)	Inhibition of binding of IL-8 (Hep) (IL-8; immobilised heparin)	Inhibition of binding of bFGF (HS) (bFGF; immobilised heparan sulfate)	IC50 (bFGF; [4]) [nM]	Inhibition of binding of bFGF (Hep) (bFGF; immobilised heparin)	IC50 (bFGF; [5]) [nM]	Relative inhibition (%) [1] [%]	EC50 [1] [µg/mL]	Inhibition of binding of VEGF (HS) (VEGF; immobilised heparan sulfate)	Inhibition of binding of VEGF (Hep) (VEGF; immobilised heparin)	Inhibition of binding of aFGF (HS) (aFGF; immobilised heparan sulfate)	Inhibition of binding of aFGF (Hep) (aFGF; immobilised heparin)	Amount for 50% inhibition [2] [µg/mL]	inhibition at 1 µM (IL-8; [6]) [%]	inhibition at 1 µM (IL-8; [7]) [%]	inhibition at 0.034 µM (bFGF; [8]) [%]	inhibition at 0.034 µM (bFGF; [9]) [%]	inhibition [1] [%]	EC50 ([1]; read-out: EC50 (converted)) [nM]	% Growth (rat aorta fragments; [3])	other results
O=S(=O)(O)OC1C=CC(N(Cc2cccc(CN(C3C=CC(OS(=O)(=O)O)C(OS(=O)(=O)O)C3OS(=O)(=O)O)C3C=CC(OS(=O)(=O)O)C(OS(=O)(=O)O)C3OS(=O)(=O)O)c2)C2C=CC(OS(=O)(=O)O)C(OS(=O)(=O)O)C2OS(=O)(=O)O)C(OS(=O)(=O)O)C1OS(=O)(=O)O (centres unmarked) [Compound 4d]	50% (HS)	57% (Hep)	68% (HS)	23	52% (Hep)	32	75	15	40% (HS)	44% (Hep)	65% (HS)	65% (Hep)	0.43	–	–	–	–	–	–	67%	–
O=S(=O)(O)OC1C=CC(N(CCCCCCN(C2C=CC(OS(=O)(=O)O)C(OS(=O)(=O)O)C2OS(=O)(=O)O)C2C=CC(OS(=O)(=O)O)C(OS(=O)(=O)O)C2OS(=O)(=O)O)C2C=CC(OS(=O)(=O)O)C(OS(=O)(=O)O)C2OS(=O)(=O)O)C(OS(=O)(=O)O)C1OS(=O)(=O)O (centres unmarked) [Compound 4b]	48% (HS)	55% (Hep)	48% (HS)	–	52% (Hep)	–	45	40	32% (HS)	45% (Hep)	47% (HS)	44% (Hep)	0.22	–	–	–	–	–	–	70%	% Growth (rat aorta fragments; inhibitor 100 μg/ml, second entry, higher purity compound, * significant inhibition): 65* %
O=S(=O)(O)OC1C(OS(=O)(=O)O)C(OS(=O)(=O)O)C(N(Cc2ccc(CN(C3C(OS(=O)(=O)O)C(OS(=O)(=O)O)C(OS(=O)(=O)O)C(OS(=O)(=O)O)C3OS(=O)(=O)O)C3C(OS(=O)(=O)O)C(OS(=O)(=O)O)C(OS(=O)(=O)O)C(OS(=O)(=O)O)C3OS(=O)(=O)O)cc2)C2C(OS(=O)(=O)O)C(OS(=O)(=O)O)C(OS(=O)(=O)O)C(OS(=O)(=O)O)C2OS(=O)(=O)O)C(OS(=O)(=O)O)C1OS(=O)(=O)O (centres unmarked) [Compound 5e]	–	–	–	–	–	–	–	–	–	–	–	–	–	–	–	–	–	–	–	60* %	–
O=S(=O)(O)O[C@H]1[C@H](OS(=O)(=O)O)[C@@H](N(CCCN([C@H]2C=C[C@@H](OS(=O)(=O)O)[C@@H](OS(=O)(=O)O)[C@@H]2OS(=O)(=O)O)[C@H]2C=C[C@@H](OS(=O)(=O)O)[C@@H](OS(=O)(=O)O)[C@@H]2OS(=O)(=O)O)[C@H]2C=C[C@@H](OS(=O)(=O)O)[C@@H](OS(=O)(=O)O)[C@@H]2OS(=O)(=O)O)C=C[C@H]1OS(=O)(=O)O [Compound 4a]	–	–	–	110	–	> 250	–	–	–	–	–	–	–	38	48	29	20	60	16200	–	inhibition at 10 µg/mL ([1]; read-out: Inhibition (%) at 10 μg/ml): 37%; inhibition at 0.034 µM (VEGF; [10]): 4%; inhibition at 0.034 µM (VEGF; [11]): 5%; inhibition at 0.034 µM (aFGF; [12]): 73%; inhibition at 0.034 µM (aFGF; [13]): 74%; IC50 [2]: 162 nM

More lines, main results first:

Inhibition of binding of IL-8 (HS) (IL-8; immobilised heparan sulfate)	Inhibition of binding of IL-8 (Hep) (IL-8; immobilised heparin)	Inhibition of binding of bFGF (HS) (bFGF; immobilised heparan sulfate)	IC50 (bFGF; [4]) [nM]	Inhibition of binding of bFGF (Hep) (bFGF; immobilised heparin)	IC50 (bFGF; [5]) [nM]	Relative inhibition (%) [1] [%]	EC50 [1] [µg/mL]	Inhibition of binding of VEGF (HS) (VEGF; immobilised heparan sulfate)	Inhibition of binding of VEGF (Hep) (VEGF; immobilised heparin)	Inhibition of binding of aFGF (HS) (aFGF; immobilised heparan sulfate)	Inhibition of binding of aFGF (Hep) (aFGF; immobilised heparin)	Amount for 50% inhibition [2] [µg/mL]	inhibition at 1 µM (IL-8; [6]) [%]	inhibition at 1 µM (IL-8; [7]) [%]	inhibition at 0.034 µM (bFGF; [8]) [%]	inhibition at 0.034 µM (bFGF; [9]) [%]	inhibition [1] [%]	EC50 ([1]; read-out: EC50 (converted)) [nM]	Molecule	% Growth (rat aorta fragments; [3])	other results
0%	10%	56% (HS)	25	50% (Hep)	34	100	2.9	65% (HS)	29% (Hep)	33% (HS)	96% (Hep)	–	–	–	–	–	–	–	phosphomannopentaose sulfate [PI-88, reference compound]	45** %	% Growth (rat aorta fragments; inhibitor 10 μg/ml, * significant inhibition): 64* %; Inhibition (%) at 10 μg/ml ([1]; 10 μg/ml): 90%
–	–	–	–	–	–	–	–	–	–	–	–	–	65	62	43	46	73	6130	O=S(=O)(O)O[C@H]1[C@H](OS(=O)(=O)O)[C@@H](N(CCCCCCCCCN([C@H]2C=C[C@@H](OS(=O)(=O)O)[C@@H](OS(=O)(=O)O)[C@@H]2OS(=O)(=O)O)[C@H]2C=C[C@@H](OS(=O)(=O)O)[C@@H](OS(=O)(=O)O)[C@@H]2OS(=O)(=O)O)[C@H]2C=C[C@@H](OS(=O)(=O)O)[C@@H](OS(=O)(=O)O)[C@@H]2OS(=O)(=O)O)C=C[C@H]1OS(=O)(=O)O [Compound 4j]	–	inhibition at 0.034 µM (VEGF; [10]): 54%; inhibition at 0.034 µM (VEGF; [11]): 64%; inhibition at 0.034 µM (aFGF; [12]): 31%; inhibition at 0.034 µM (aFGF; [13]): 31%; IC50 [2]: 91.9 nM
